From patent US7008911B2, “Non-surfactant solubilizing agent” (Ecolab, Inc., priority 2002, dated 2006)

Legend:
Assay type in all cases: physicochemical
[1] = Alcohol amine added to aqueous EPh solution until single phase observed; conditions: for amount added until a single phase solution was observed: 100 grams total, room temperature
[2] = Alcohol amine added to aqueous PPh solution until single phase observed; conditions: aqueous PPh (34-37 wt % PPh, 39-42 wt % water), room temperature, Formulations B-E
[3] = Alcohol amine added to aqueous benzyl alcohol solution until single phase observed; conditions: aqueous benzyl alcohol (37 wt %, water 42 wt %), room temperature, Formulation F
[4] = listed as of Table 4 with 1 % Eph in H2O, Eph 1 wt % normalized
[5] = listed as of Table 4 with 2.5 % Eph in H2O, Eph 2 wt % normalized
[6] = listed as of Table 4 with 5 % Eph in H2O, Eph 4 wt % normalized
[7] = listed as of Table 4 with 10 % Eph in H2O, Eph 7-8 wt % normalized
[8] = listed as of Table 4 with 15 % Eph in H2O, Eph 10-12 wt % normalized
[9] = listed as of Table 4 with 20 % Eph in H2O, Eph 14-15 wt % normalized
[10] = listed as of Table 4 with 30 % Eph in H2O, Eph 21-23 wt % normalized
[11] = listed as of Table 4 with 50 % Eph in H2O, Eph 36-40 wt % normalized
[12] = listed as of Table 4 with 75 % Eph in H2O, Eph 58-64 wt % normalized

SMILES | amount added until a single phase solution was observed ([1]; 1 % Eph in H2O) [Grams] | amount added until a single phase solution was observed ([1]; 2.5 % Eph in H2O) [Grams] | amount added until a single phase solution was observed ([1]; 5 % Eph in H2O) [Grams] | amount added until a single phase solution was observed ([1]; 10 % Eph in H2O) [Grams] | amount added until a single phase solution was observed ([1]; 15 % Eph in H2O) [Grams] | amount added until a single phase solution was observed ([1]; 20 % Eph in H2O) [Grams] | amount added until a single phase solution was observed ([1]; 30 % Eph in H2O) [Grams] | amount added until a single phase solution was observed ([1]; 50 % Eph in H2O) [Grams] | amount added until a single phase solution was observed ([1]; 75 % Eph in H2O) [Grams] | alcohol amine at single phase, normalized to 100 weight % of water, alcohol amine and EPh [1, 4] [wt %] | alcohol amine at single phase, normalized to 100 weight % of water, alcohol amine and EPh [1, 5] [wt %] | alcohol amine at single phase, normalized to 100 weight % of water, alcohol amine and EPh [1, 6] [wt %] | alcohol amine at single phase, normalized to 100 weight % of water, alcohol amine and EPh [1, 7] [wt %] | alcohol amine at single phase, normalized to 100 weight % of water, alcohol amine and EPh [1, 8] [wt %] | alcohol amine at single phase, normalized to 100 weight % of water, alcohol amine and EPh [1, 9] [wt %] | alcohol amine at single phase, normalized to 100 weight % of water, alcohol amine and EPh [1, 10] [wt %] | alcohol amine at single phase, normalized to 100 weight % of water, alcohol amine and EPh [1, 11] [wt %] | alcohol amine at single phase, normalized to 100 weight % of water, alcohol amine and EPh [1, 12] [wt %] | alcohol amine at single phase, normalized on total weight % [2] [wt %] | alcohol amine at single phase, normalized on total weight % [3] [wt %]
CC(C)(N)CO [AMP, 2-amino-2-methyl-1-propanol] | 4.8 | 12.3 | 21.5 | 26.8 | 28.7 | 29.2 | 29 | 26.7 | 17.8 | 5 | 11 | 18 | 21 | 22 | 23 | 23 | 22 | 15 | 21 | –
NCCO [MEA, monoethanolamine] | 2.3 | 12.7 | 26.9 | 40.5 | 45.4 | 44 | 40 | 34 | 26.1 | 2 | 11 | 21 | 29 | 32 | 30 | 29 | 26 | 20 | 25 | –
CC(O)CN (stereo not shown) [MIPA, monoisopropanolamine] | 3.5 | 16 | 26.8 | 32.2 | 33.5 | 32.9 | 31.1 | 26 | 17.5 | 3 | 14 | 21 | 24 | 25 | 25 | 24 | 20 | 15 | 21 | 21
